Like-named read-outs stand apart in the source and are kept apart here.

The subject of one series is BV-2 cells. Put plainly: Cell viability (MTT analysis) of beta-amyloid treated BV-2 cells. Format: cell-based. Particulars: Mus musculus, BV-2 cells, average of three experiments. The procedure: Beta-amyloid (Aβ25-35, Sigma Chemical Co., St. Louis, Mo., USA) was diluted with aseptic desalted water and preservative solution (1 mM, GIBCO), and kept in aliquots at −70° C. To the treatment of beta-amyloid, beta-amyloid preservative solution was diluted to desired concentrations in a treatment medium (DMEM, GIBCO). The reagents were newly provided as a preservative solution (10 mM) under DMSO (dimethylsulfoxide), and diluted in treatment medium to desired concentrations.
BV-2 microglia cells (allotted from Pharmacology Division of Ajou University) were cultivated in DMEM (Dulbecco's Modified Eagle's Medium) supplemented with 5% fetal bovine serum (Invitrogen, Carlsbad, Calif., USA), sou/Ml penicillin (Invitrogen, Carlsbad, Calif., USA), and 50 μg/Ml streptomycin (Invitrogen, Carlsbad, Calif., USA) under the atmosphere condition with 5% CO2 and 95% air at 37° C. The medium was replaced once a day, the cells were plate-cultured in a density according to the scale of each experiment.
BV-2 cells were plate-cultured in 96-well plate at the density of 5×10^4, the cell viability was measured according to a conventional MTT analysis method and lactate dehydrogenase (LDH) analysis method. The MTT analysis depends on the metabolism ability of mitochondria of living cell, and reflexes intracellular redox states. The cultured cells were treated with MTT a solution (final concentration: 1 mg/Ml) for 4 hours. Deep blue formazan crystal generated in the original cells was dissolved in a lysis buffer, and then, the absorbance was detected at 595 nm with microplate reader. The LDH activity released from the culture medium was detected, which was evaluated as a cell death index. The culture medium was added to a reagent (test, Sigma Chemical Co, St. Louis, Mo., USA) containing sodium lactate, NADH and sodium pyruvate, and then, the absorbance reduction by NADH at 340 nm was measured. The result was calculated assuming that the LDH activity in homogenate solution of the non-treated control is 100%.
[…] For microscope analysis, BV-2 cells were used in 6-well plate at the density of 5×10^5 cells/well, for MTT analysis, BV-2 cells were used in 96-well plate at the density of 5×10^4 cells/well.
The obtained prevention effects of KHG25967 compound on toxicity induced by beta-amyloid in BV-2 cells were FIGS. 1A and 1b.
For MTT analysis, BV-2 cells were used on 96-well plate in the density of 5×10^4 cells/well. The quantitative analysis results (unit: %) for the cell viability obtained by MTT analysis were shown in Table 2, wherein the values are represented by the average of three experiments per each concentration.

Where [1] appears, read: compound 500 nM for 24 hours after 50 μM beta-amyloid for 2 hours, read-out: cell viability by MTT analysis.
Where [2] appears, read: BV-2, read-out: cell viability by MTT analysis, compound 500 nM for 24 hours after 50 μM beta-amyloid for 2 hours.
[3] abbreviates: compound 50 μM for 24 hours after 50 μM beta-amyloid for 2 hours, read-out: cell viability by MTT analysis.

`Cc1cc2nc(NC(=S)NCC(=O)O)sc2cc1C` [KHG26335, 2-(3-(5,6-dimethylbenzo[d]thiazole-2-yl)thioureido)acetic acid] returned a melting point of 212 °C. Also, the viability at 0.5 µM in the series with BV-2 cells (setting [1]) was 81%. Taken in the same sequence, the figures for `O=C(O)CNC(=S)Nc1nc2ccc(Cl)cc2s1` [KHG26341, 2-(3-(6-chlorobenzo[d]thiazole-2-yl)thioureido)acetic acid] were 193 °C and 67%.

In turn, `O=C([O-])CNC(=O)Nc1nc2ccc(Cl)cc2s1.[K+]` [KHG26177, potassium 2-(3-(6-chlorobenzo[d]thiazole-2-yl)ureido)acetate] showed a melting point of 237 °C. Also, the viability at 0.5 µM in the series on BV-2 cells (setting [2]) is 62%. Regarding `CCNC(=O)Nc1nc2ccccc2s1` [KHG26332, 1-(benzo[d]thiazole-2-yl)-3-ethylurea], the viability at 50 µM with BV-2 cells (BV-2, read-out: cell viability by MTT analysis, compound 50 μM for 24 hours after 50 μM beta-amyloid for 2 hours) came to 18%.

Turning to `Cc1ccc2nc(NC(=O)NCC(=O)[O-])sc2c1.[K+]` [KHG26216, potassium 2-(3-(6-methylbenzo[d]thiazole-2-yl)ureido)acetate], the melting point was determined as 236 °C. Moreover, in the series with BV-2 cells (setting [2]), the viability at 0.5 µM was found to be 62%. `CCOC(=O)CCCNC(=O)Nc1nc2ccccc2n1C` [KHG26031, ethyl 4-(3-(1-methyl-1H-benzo[d]imidazole-2-yl)ureido)butanoate] gave a melting point of 81 °C. Besides, the viability at 50 µM in the series with BV-2 cells (setting [3]) turned out to be 56%. Molecule `O=C(O)CNC(=S)Nc1nc2ccccc2s1` [KHG26316, 2-(3-benzo[d]thiazole-2-ylthioureido)acetic acid] returned a melting point of 200 °C. Also, in the series with BV-2 cells (setting [1]), the viability at 0.5 µM was found to be 57%. On to `CCOC(=O)CCCNC(=O)Nc1nc2ccccc2s1` [KHG26004, ethyl 4-(3-benzo[d]thiazole-2-ylureido)butanoate], for which the melting point was 278 °C. The viability at 50 µM in the series on BV-2 cells (setting [3]) was found to be 37%.

Take `Cc1ccc(CNC(=O)Nc2nc3ccccc3s2)cc1` [KHG25948, 1-(benzo[d]thiazole-2-yl)-3-(4-methylbenzyl)urea]: the melting point amounted to 257 °C. Moreover, the viability at 50 µM with BV-2 cells (setting [3]) amounted to 30%.

Consider `COc1ccc2nc(NC(=O)NCC(=O)O)sc2c1` [KHG26175, potassium 2-(3-(6-methoxybenzo[d]thiazole-2-yl)ureido)acetate], for which the viability at 0.5 µM in the series with BV-2 cells (setting [2]) was determined as 76%. The molecule `O=C(NCc1nn[nH]n1)Nc1nc2ccccc2s1` [KHG26345] displayed a melting point of 249 °C. For the same molecule, the viability at 0.5 µM with BV-2 cells (setting [1]) was determined as 63%. As for `O=C([O-])CCCNC(=O)Nc1nc2ccccc2s1.[K+]` [KHG26221, potassium 4-(3-benzo[d]thiazole-2-ylureido)butanoate], the melting point worked out at 241 °C. In the series on BV-2 cells (setting [2]), the viability at 0.5 µM worked out at 44%. In turn, `CCOC(=O)CNC(=S)Nc1nc2ccc(Cl)cc2s1` [KHG26311, ethyl 2-(3-(6-chlorobenzo[d]thiazole-2-yl)thioureido)acetate] returned a melting point of 184 °C. In addition, the viability at 0.5 µM in the series on BV-2 cells (setting [1]) turned out to be 67%.

In the case of `CCOC(=O)CNC(=S)Nc1nc2ccccc2s1` [KHG26304, ethyl 2-(3-benzo[d]thiazole-2-ylthioureido)acetate], the melting point is 204 °C. In the series on BV-2 cells (setting [1]), the viability at 0.5 µM turned out to be 41%.

The molecule `CCCCOC(=O)CNC(=O)Nc1nc2ccccc2s1` [KHG25954, butyl 2-(3-benzo[d]thiazole-2-ylureido)acetate] gave a melting point of 294 °C. Moreover, the viability at 50 µM in the series with BV-2 cells (setting [3]) was determined as 48%. As for `CCOC(=O)CCCNC(=O)Nc1nc2ccccc2[nH]1` [KHG26028, ethyl 4-(3-1H-benzo[d]imidazole-2-ylureido)butanoate], the melting point worked out at 277 °C. For the same molecule, the viability at 50 µM with BV-2 cells (setting [3]) turned out to be 34%. In turn, `Cc1cccc2sc(NC(=O)NCC(=O)[O-])nc12.[K+]` [KHG26217, potassium 2-(3-(4-methylbenzo[d]thiazole-2-yl)ureido)acetate] returned a melting point of 264.4 °C. In addition, the viability at 0.5 µM in the series with BV-2 cells (setting [2]) came to 49%. As for `CCOC(=O)CNC(=O)Nc1nc2ccc(OC)cc2s1` [KHG26019, ethyl 2-(3-(6-methoxybenzo[d]thiazole-2-yl)ureido)acetate], the melting point amounted to 281.9 °C. The viability at 50 µM in the series on BV-2 cells (setting [3]) amounted to 47%. The molecule `CCOc1ccc2nc(NC(=O)NCC(=O)O)sc2c1` [KHG26348, 2-(3-(6-ethoxybenzo[d]thiazole-2-yl)ureido)acetic acid] gave a melting point of 197 °C. `Cc1cc2nc(NC(=O)NCC(=O)O)sc2cc1C` [KHG26354, 2-(3-(5,6-dimethylbenzo[d]thiazole-2-yl)ureido)acetic acid] returned a melting point of 198 °C. In the case of `O=C(O)CNC(=O)Nc1nc2c(Cl)cccc2s1` [KHG26352, 2-(3-(4-chlorobenzo[d]thiazole-2-yl)ureido)acetic acid], the melting point amounted to 198 °C.

`Cn1c(NC(=O)NCCCC(=O)O)nc2ccccc21` [KHG26358, 4-(3-(1-methyl-1H-benzo[d]imidazole-2-yl)ureido)butanoic acid] registered a melting point of 197 °C. With `Cn1c(NC(=O)NCCC(=O)O)nc2ccccc21` [KHG26357, 3-(3-(1-methyl-1H-benzo[d]imidazole-2-yl)ureido)propane acid], the melting point came out at 237 °C. Same read-out and setting: under `COc1ccc2nc(NC(=O)NCC(=O)O)sc2c1` [KHG26346, 2-(3-(6-methoxybenzo[d]thiazole-2-yl)ureido)acetic acid] stands 198.3 °C; under `Cc1ccc2nc(NC(=O)NCC(=O)O)sc2c1` [KHG26355, 2-(3-(6-methylbenzo[d]thiazole-2-yl)ureido)acetic acid], 201 °C; under `CCOC(=O)CNC(=O)Nc1nc2ccc(Cl)cc2s1` [KHG26349, ethyl 2-(3-(6-chlorobenzo[d]thiazole-2-yl)ureido)acetate], 295 °C. On to `CCOC(=O)CNC(=O)Nc1nc2cc(C)c(C)cc2s1` [KHG26353, ethyl 2-(3-(5,6-dimethylbenzo[d]thiazole-2-yl)ureido)acetate], for which the melting point came out at 268 °C. For the molecule `Cc1ccc(CNC(=O)Nc2nc3ccc(Cl)cc3o2)cc1` [KHG25990], the viability at 50 µM with BV-2 cells (setting [3]) turned out to be 37%. For `Cn1c(NC(=O)NCCC(=O)O)nc2ccccc21` [KHG26222, potassium 3-(3-(1-methyl-1H-benzo[d]imidazole-2-yl)ureido)propanoate], in the series on BV-2 cells (setting [2]), the viability at 0.5 µM came to 33%. `CCOC(=O)CNC(=O)Nc1nc2ccc(Cl)cc2o1` [KHG25989, ethyl 2-(3-(6-chlorobenzo[d]oxazole-2-yl)ureido)acetate]: the viability at 50 µM in the series with BV-2 cells (setting [3]) is 55%.

`CCOC(=O)CNC(=O)Nc1nc2c(Cl)cccc2s1` [KHG26351, ethyl 2-(3-(4-chlorobenzo[d]thiazole-2-yl)ureido)acetate] showed a melting point of 213 °C. `O=C(O)CNC(=O)Nc1nc2ccc(Cl)cc2s1` [KHG26350, 2-(3-(6-chlorobenzo[d]thiazole-2-yl)ureido)acetic acid] displayed a melting point of 216 °C. In the case of `Cc1cccc2sc(NC(=O)NCC(=O)O)nc12` [KHG26356, 2-(3-(4-methylbenzo[d]thiazole-2-yl)ureido)acetic acid], the melting point worked out at 203 °C. As for `O=C(O)CNC(=O)Nc1nc2ccccc2s1` [KHG26096, potassium 2-(3-benzo[d]thiazole-2-ylureido)acetate], the viability at 0.5 µM in the series with BV-2 cells (setting [2]) worked out at 72%. In the case of `CCOC(=O)CNC(=O)Nc1nc2ccc(OCC)cc2s1` [KHG26347, ethyl 2-(3-(6-ethoxybenzo[d]thiazole-2-yl)ureido)acetate], the melting point came to 264 °C.

By viability is commonly meant a per cent measure of how many cells are alive, often set against a control. As a reminder, the melting point is the temperature, or range, at which the solid turns liquid.

Values taken from patent US9012481B2, “Benzoarylureido compounds, and composition for prevention or treatment of neurodegenerative brain disease containing the same” (Korea Institute of Science and Technology, priority 2009, dated 2015).
